Laboratory results reported in patent US20090074740A1, “Use of haptoglobin genotyping in diagnosis and treatment of defective reverse cholesterol transport (RCT)” (priority 2007, published 2009).
Several values for one entry are separate records, joined by “and”; a condition that tells them apart may be missing. Equal values may be shown once. Entries after “also recorded” stand apart in the source; their conditions may differ.

Tests used:
[1] = per 1 mg, National Formulary; cited from earlier work
J774 macrophage cells = experiment: HDL-mediated cholesterol efflux from J774 cells incubated with purified HDL, native or glycated Hb and Hp; format: cell-based, murine; conditions: efflux with purified HDL taken as 100%; 0.8 umol/L; 3-hour incubation
Method: Cell Culture. J774 A.1 murine macrophage cells were purchased from the American Type Culture Collection (Manassas, Va.) and grown in DMEM supplemented with 5% FBS.
Cholesterol Efflux From Macrophages. Murine J774 cells (1×10^6/mL) were plated in 24-well plates for 48 hours, then washed and incubated in DMEM without serum containing ^3H-cholesterol (2 uCi/mL) for 1 hour. Cells were washed to remove unincorporated label and then incubated in 1 mL of DMEM supplemented with: (1) nothing (negative control); (2) purified HDL (100 ug/mL protein) (positive control); or (3) 30 uL of serum from individuals with or without DM with the different Hp genotypes. In studies using purified Hp and Hb rather than serum, the cells were incubated with purified HDL ([…] protein) with different combinations of native Hb, glycated Hb, Hp1-1, and Hp2-2 (all at 0.8 umol/L).
After a 3-hour incubation at 37° C. to permit efflux of ^3H-cholesterol from the cells into the medium, 500 uL of the medium was collected, the cells washed with PBS, and 0.1 N NaOH added to the cells. Cellular and medium ^3H-cholesterol were determined by liquid scintillation counting (LSC). The percentage of cholesterol efflux was calculated as the ratio of total counts per minute in the medium divided by the total counts per minute in the medium and in the cells. HDL-mediated cholesterol efflux (resulting from purified HDL or HDL found in the serum) was calculated after subtraction of the nonspecific efflux obtained in cells incubated in the absence of purified HDL or serum. Results reported for efflux elicited by serum samples are normalized for the serum HDL concentration derived as (measured efflux)(measured HDL in mg/dL)/50.

HDL associated lipids = experiment: Measurement of HDL-associated lipid peroxides; format: biochemical, human; conditions: Hb 1 umol/L, 100 ug HDL
Method: Measurement of HDL-Associated Lipid Peroxides. Glycosylated or nonglycosylated Hb (1 umol/L) was incubated with 100 ug of HDL and 20 umol/L ascorbic acid in PBS with or without Hp1-1 or Hp2-2 (equimolar to Hb) for 3 hours at 37° C. Lipid peroxides were measured as previously described.

J774 macrophages = experiment: Cholesterol efflux from J774 macrophages elicited by serum from Hp 2-2 DM mice treated with vitamin E; format: in vivo; conditions: 40 mg/kg/day beginning three weeks after induction of DM, serum on J774 cells
Excerpt: (§1) Hp transgenic mice and veneration of DM. All protocols were approved by the Animal Care and Use Committee of the Technion. […]. The characterization and generation of Hp 1 and Hp 2 mice in a C57B1/6 genetic background has previously been described in detail. Briefly, the murine Hp 1 allele is the wild type murine Hp allele. The Hp 2 allele exists only in man and a murine Hp 2 allele was genetically engineered in vitro and its insertion targeted at the Hp locus by homologous recombination. […] Diabetes was generated in these mice at 8 weeks of age using a low dose streptozotocin protocol (NIH Funded Consortium on Animal Models of Diabetic Complications protocol available on the consortium web site www.amdcc.org) and confirmed by measuring plasma glucose. Mice were diabetic for at least 1 month prior to analysis.
(§2) Vitamin E (racemic, alpha-tocopherol acetate, Merck) was administered to a subset of the Hp 2-2 DM mice at a dose of 40 mg/kg/day beginning three weeks after the induction of DM.

[2] = Glucose control and lipid profile in Hp 2-2 DM mice given vitamin E; format: in vivo; conditions: 40 mg/kg/day
Excerpt: as §1, §2

[3] = ICARE study: vitamin E versus placebo in Hp 2-2 Type II DM individuals (MI, stroke, CVD death); format: in vivo, human
Excerpt: The study protocol of the ICARE study involves the following: participants were drawn from 47 primary health clinics of the Clalit Health Services in the northern sector of Israel. Patients were eligible for the study if they had Type II DM and were 55 years of age or older. […] These Hp 2-2 individuals were randomly assigned to treatment with either vitamin E or placebo. The major study outcomes (MI, stroke, CVD death) were identified prospectively in this population over an 18 month period. A preplanned secondary analysis of ICARE was to assess the ability of vitamin E therapy to influence outcomes in those ICARE participants who were also taking statins. Statin use as prospectively defined in ICARE was based on the use of statins by the participant in at least eight of the twelve months preceding enrollment of the participant in the study. The decision to use statins for a particular participant was under the discretion of the patient's primary care physician and was in no way influenced by the patient's participation in the ICARE study.
Robust clinical data has shown that individuals homozygous for the Hp 2 allele (Hp 2-2 genotype), 40% of DM individuals, have an up to 500% increased risk of CVD (21-24). A vast amount of basic science, animal and epidemiological data has provided the logic for targeting vitamin E administration specifically to DM individuals with the Hp 2-2 genotype. In the ICARE study (Israel CArdiovascular events Reduction with vitamin E (ClinicalTrials.gov# NCT00220831)) a prospective randomized placebo controlled trial of vitamin E therapy in DM individuals with the Hp 2-2 genotype, is was shown that vitamin E therapy results in a 50% reduction in CVD events. However, only about half of the Hp 2-2 DM participants in ICARE received statin therapy.

CC(=O)Oc1c(C)c(C)c2c(c1C)CCC(C)(CCCC(C)CCCC(C)CCCC(C)C)O2 (racemic) [all-rac-α-tocopherol acetate]
specific activity of 1 mg [1]: 1.00 IU

Cc1c(C)c2c(c(C)c1O)CC[C@@](C)(CCC[C@H](C)CCC[C@H](C)CCCC(C)C)O2 [RRR-.alpha-tocopherol]
specific activity of 1 mg [1]: 1.49 IU

CC(=O)Oc1c(C)c(C)c2c(c1C)CC[C@@](C)(CCC[C@H](C)CCC[C@H](C)CCCC(C)C)O2 [RRR-.alpha-tocopherol acetate]
specific activity of 1 mg [1]: 1.36 IU

Cc1c(C)c2c(c(C)c1O)CCC(C)(CCCC(C)CCCC(C)CCCC(C)C)O2 (racemic) [all-rac-.alpha-tocopherol]
specific activity of 1 mg [1]: 1.10 IU

glycated Hb: Human hemoglobin glycated in vitro using glycolaldehyde
reduction in HDL-mediated cholesterol efflux (J774 macrophage cells): 35% and 34±3% | increase in HDL-associated lipid peroxides (HDL associated lipids; 20 umol/L ascorbic acid, 3 hours at 37 C, mean of 2 independent experiments): 142.3 nmol of lipid peroxide per milligram of HDL

CC(=O)Oc1c(C)c(C)c2c(c1C)CCC(C)(CCC[C@H](C)CCC[C@H](C)CCCC(C)C)O2 (mixture of isomers) [vitamin E, alpha-tocopherol acetate]
effect on the impairment in cholesterol efflux produced by DM in Hp 2 mice (J774 macrophages): prevented; also recorded: prevent the impairment in efflux | effect on the impairment in cholesterol efflux produced by DM in Hp 2 mice (J774 macrophages; listed as Vitamin E): prevent the impairment in efflux | effect on glucose control [2]: no effect | effect on the lipid profile [2]: no effect | reduction in CVD events ([3]; DM individuals with the Hp 2-2 genotype, ICARE overall): 50% | event rate (MI, stroke, CVD death) ([3]; Hp 2-2 DM individuals taking statins in at least eight of the twelve months before enrollment, 18 month period): 1.3% | event rate (MI, stroke, CVD death) ([3]; Hp 2-2 DM individuals taking statins in at least one of the twelve months before enrollment): 1.7% | hazard ratio [HR] versus placebo ([3]; Hp 2-2 DM individuals taking statins, 95% CI 0.15-0.83): 0.31

native Hb: Native hemoglobin isolated from fresh human blood
effect on HDL-mediated efflux of 3H-cholesterol (J774 macrophage cells): did not cause any reduction; also recorded: no effect | increase in HDL-associated lipid peroxides (HDL associated lipids; 3 hours): no increase

B1: Haptoglobin: Highly conserved plasma glycoprotein, the major protein that binds free hemoglobin (protein, UniProt P00738 19-406, looked up)
Haptoglobin: VDSGNDVTDIADDGCPKPPEIAHGYVEHSVRYQCKNYYKLRTEGDGVYTLNDKKQWINKAVGDKLPECEADDGCPKPPEIAHGYVEHSVRYQCKNYYKLRTEGDGVYTLNNEKQWINKAVGDKLPECEAVCGKPKNPANPVQRILGGHLDAKGSFPWQAKMVSHHNLTTGATLINEQWLLTTAKNLFLNHSENATAKDIAPTLTLYVGKKQLVEIEKVVLHPNYSQVDIGLIKLKQKVSVNERVMPICLPSKDYAEVGRVGYVSGWGRNANFKFTDHLKYVMLPVADQDQCIRHYEGSTVPEKKTPKSPVGVQPILNEHTFCAGMSKYQEDTCYGDAGSAFAVHDLEEDTWYATGILSFDKSCAVAEYGVYVKVTSIQDWVQKTIAEN
effect on HDL-mediated efflux of 3H-cholesterol (J774 macrophage cells): no effect
